Source: ChEMBL document CHEMBL1124462, “Synthesis, DNA binding, and biological evaluation of synthetic precursors and novel analogues of netropsin” (J Med Chem, 1989)
In brackets after ≈: the same amount, converted by molar mass.

System: Vaccinia virus
Assay: Minimum inhibitory concentration required to reduce vaccinia virus induced cytopathogenicity by 50% in primary rabbit kidney cells (PRK)
Type: functional
Settings: Orthopoxvirus vaccinia

Row | Compound | MIC [µg/mL]
1 | Cn1cc([N+](=O)[O-])cc1C(=O)NCCC#N | > 200
2 | Cn1c(C(=O)NCCC#N)ccc1[N+](=O)[O-] | > 200
3 | COC(=O)c1ccc([N+](=O)[O-])n1C | > 400
4 | Cn1cc(NC(=O)c2cc([N+](=O)[O-])cn2C)cc1C(=O)O | > 400
5 | CC(NC(=O)C(C)NC(=O)c1cc(NC(=O)c2cc(NC(=O)CNC(=N)N)cn2C)cn1C)C(=O)O (centres undefined) | > 400
6 | CC(NC(=O)c1cc(NC(=O)c2cc(NC(=O)CNC(=N)N)cn2C)cn1C)C(=O)O (centres undefined) | > 200
7 | CC(NC(=O)c1cc(NC(=O)c2cc(NC(=O)CNC(=N)N)cn2C)cn1C)C(=O)OC(C)(C)C (centres undefined) | 150 (≈ 307 µM)
8 | Cn1cc(NC(=O)c2cc(NC(=O)CNC(=N)N)cn2C)cc1C(=O)NCCCNCCCCN | > 200
9 | CC(NC(=O)c1cc(NC(=O)c2cc(NC(=O)CNC(=N)N)cn2C)cn1C)C(=O)NC(C)C(=O)OC(C)(C)C (centres undefined) | > 200
10 | Cn1cc(NC(=O)CNC(=N)N)cc1C(=O)NCCCNCCCCN | > 400
11 | CC(NC(=O)c1cc(NC(=O)c2cc([N+](=O)[O-])cn2C)cn1C)C(=O)OC(C)(C)C (centres undefined) | > 40
12 | Cn1cc(NC(=O)c2cc([N+](=O)[O-])cn2C)cc1C(=O)NCCC#N | > 10
13 | Cn1cc(NC(=O)c2cc([N+](=O)[O-])cn2C)cc1C(=O)NCCC(=N)N | > 100
14 | CC(NC(=O)c1cc(NC(=O)c2cc([N+](=O)[O-])cn2C)cn1C)C(=O)NC(C)C(=O)OC(C)(C)C (centres undefined) | > 100
15 | Cn1cc([N+](=O)[O-])cc1C(=O)O | > 400
16 | Cn1c(C(=O)O)ccc1[N+](=O)[O-] | > 200
17 | COC(=O)c1cc(NC(=O)c2cc([N+](=O)[O-])cn2C)cn1C | > 10
18 | C[C@H](NC(=O)[C@H](C)NC(=O)[C@H](C)NC(=O)c1cc(NC(=O)c2cc(NC(=O)CNC(=N)N)cn2C)cn1C)C(=O)O | > 400
19 | C[C@H](NC(=O)c1cc(NC(=O)c2cc(NC(=O)CNC(=N)N)cn2C)cn1C)C(=O)N[C@@H](C)C(=O)N[C@@H](C)C(=O)OC(C)(C)C | > 100
20 | C[C@H](NC(=O)c1cc(NC(=O)c2cc([N+](=O)[O-])cn2C)cn1C)C(=O)N[C@@H](C)C(=O)N[C@@H](C)C(=O)OC(C)(C)C | > 100
21 | Cn1cc([N+](=O)[O-])cc1C(=O)NCCC(=N)N | > 200
22 | Cn1c(C(=O)NCCC(=N)N)ccc1[N+](=O)[O-] | > 100
23 | Cn1cc([N+](=O)[O-])cc1C(=O)NCCCNCCCCN | > 200
24 | Cn1cc(NC(=O)c2cc([N+](=O)[O-])cn2C)cc1C(=O)NCCCNCCCCN | > 200
25 | Nc1nccc2c1ncn2[C@@H]1C[C@H](CO)[C@@H](O)[C@H]1O [3-DEAZAARISTEROMYCIN A] | 2 (≈ 7.57 µM)
26 | Nc1ncnc2c1ncn2C[C@H](O)CO [(S)-DHPA] | 70 (≈ 335 µM)
27 | Cn1cc(NC(=O)c2cc(NC(=O)CNC(=N)N)cn2C)cc1C(=O)NCCC(=N)N [NETROPSIN] | 70 (≈ 163 µM)
28 | NC(=O)c1ncn([C@@H]2O[C@H](CO)[C@@H](O)[C@H]2O)n1 [RIBAVIRIN] | 2 (≈ 8.19 µM)
29 | Nc1ncnc2c1ccn2[C@@H]1O[C@H](CO)[C@@H](O)[C@H]1O [TUBERCIDIN] | 0.07 (≈ 0.263 µM)
